Results published in article PMC11213733, “Computational approaches identify a transcriptomic fingerprint of drug-induced structural cardiotoxicity” (Cell Biology and Toxicology, 2024).
Structures can show the parent of a compound that is named as a salt.

Assays:
cardiac microtissues = assay: Transcriptomic profiling (mRNA-seq) and DESeq2 differential gene expression analysis in cardiac microtissues; details: absolute log2(Fold-Change) > 1, FDR p ≤ 0.05; for number of significant differentially expressed genes, 6hr high / number of significant differentially expressed genes, 48hr high / number of significant differentially expressed genes, 72hr high: high concentration; for number of significant differentially expressed genes, 6hr low / number of significant differentially expressed genes, 48hr low / number of significant differentially expressed genes, 72hr low: low concentration
[1] = ref FDA label, cited from earlier work; for Structural cardiotoxin?: FDA label references heart failure or a decrease in left ventricular ejection fraction; for Functional cardiotoxin?: compound annotation

For `Nc1nc2c(ncn2COCCO)c(=O)[nH]1` [Acyclovir], the “number of significant differentially expressed genes, 6hr high” value (cardiac microtissues) was 3, the “number of significant differentially expressed genes, 6hr low” value (cardiac microtissues) was 4 and the “number of significant differentially expressed genes, 48hr high” value (cardiac microtissues) was 0. For the same compound, the “number of significant differentially expressed genes, 48hr low” value (cardiac microtissues) was 0, the “number of significant differentially expressed genes, 72hr high” value (cardiac microtissues) was 0 and the “number of significant differentially expressed genes, 72hr low” value (cardiac microtissues) was 0.
In the case of `CN(C)C/C=C/C(=O)Nc1cc2c(Nc3ccc(F)c(Cl)c3)ncnc2cc1O[C@H]1CCOC1` [Afatinib], the “Structural cardiotoxin?” value [1] is given as “N” and the “Functional cardiotoxin?” value [1] is given as “N”.
In the case of `CC1(C)S[C@@H]2[C@H](NC(=O)[C@H](N)c3ccc(O)cc3)C(=O)N2[C@H]1C(=O)O` [Amoxacillin], the “Structural cardiotoxin?” value [1] is given as “N” and the “Functional cardiotoxin?” value [1] is given as “N”.
In the case of `CNC(=O)c1ccccc1Sc1ccc2c(/C=C/c3ccccn3)n[nH]c2c1` [Axitinib], the “Structural cardiotoxin?” value [1] is given as “N” and the “Functional cardiotoxin?” value [1] is given as “Y”.
In the case of `O=C1CC2(CCCC2)CC(=O)N1CCCCN1CCN(c2ncccn2)CC1` [Buspirone HCl], the “Structural cardiotoxin?” value [1] is listed as “N”, the “Functional cardiotoxin?” value [1] is listed as “N” and the “number of significant differentially expressed genes, 6hr high” value (cardiac microtissues) is listed as 42. For the same compound, the “number of significant differentially expressed genes, 6hr low” value (cardiac microtissues) was 10, the “number of significant differentially expressed genes, 48hr high” value (cardiac microtissues) was 14 and the “number of significant differentially expressed genes, 48hr low” value (cardiac microtissues) was 6. For the same compound, the “number of significant differentially expressed genes, 72hr high” value (cardiac microtissues) was 8 and the “number of significant differentially expressed genes, 72hr low” value (cardiac microtissues) was 4.
In the case of `Cc1ccc(-c2cc(C(F)(F)F)nn2-c2ccc(S(N)(=O)=O)cc2)cc1` [Celecoxib], the “Structural cardiotoxin?” value [1] is listed as “Y” and the “Functional cardiotoxin?” value [1] is listed as “Y”.
For `Cc1cc(Nc2ncc(Cl)c(Nc3ccccc3S(=O)(=O)C(C)C)n2)c(OC(C)C)cc1C1CCNCC1` [Ceritinib], the “Structural cardiotoxin?” value [1] is given as “N” and the “Functional cardiotoxin?” value [1] is given as “Y”.
In the case of `CN1CCN(C2=Nc3cc(Cl)ccc3Nc3ccccc32)CC1` [Clozapine], the “Functional cardiotoxin?” value [1] is given as “Y”, the “number of significant differentially expressed genes, 6hr high” value (cardiac microtissues) is given as 16 and the “number of significant differentially expressed genes, 6hr low” value (cardiac microtissues) is given as 2. For the same compound, the “number of significant differentially expressed genes, 48hr high” value (cardiac microtissues) was 25, the “number of significant differentially expressed genes, 48hr low” value (cardiac microtissues) was 4 and the “number of significant differentially expressed genes, 72hr high” value (cardiac microtissues) was 60. The “number of significant differentially expressed genes, 72hr low” value (cardiac microtissues) was 1.
In the case of `C[C@@H](Oc1cc(-c2cnn(C3CCNCC3)c2)cnc1N)c1c(Cl)ccc(F)c1Cl` [Crizotinib], the “Structural cardiotoxin?” value [1] is given as “N” and the “Functional cardiotoxin?” value [1] is given as “Y”.
For `O=P1(N(CCCl)CCCl)NCCCO1` (stereo not shown) [Cyclophosphamide], the “Structural cardiotoxin?” value [1] is given as “Y” and the “Functional cardiotoxin?” value [1] is given as “Y”.
For `Nc1ccc(S(=O)(=O)c2ccc(N)cc2)cc1` [Dapsone], the “Structural cardiotoxin?” value [1] is given as “N” and the “Functional cardiotoxin?” value [1] is given as “N”.
In the case of `COc1cccc2c1C(=O)c1c(O)c3c(c(O)c1C2=O)C[C@@](O)(C(C)=O)C[C@@H]3O[C@H]1C[C@H](N)[C@H](O)[C@H](C)O1` [Daunorubicin], the “Structural cardiotoxin?” value [1] is given as “Y” and the “Functional cardiotoxin?” value [1] is given as “Y”.
In the case of `C[C@@H]1C[C@H]2[C@@H]3CCC4=CC(=O)C=C[C@]4(C)[C@@]3(F)[C@@H](O)C[C@]2(C)[C@@]1(O)C(=O)CO` [Dexamethasone], the “Structural cardiotoxin?” value [1] is given as “N” and the “Functional cardiotoxin?” value [1] is given as “N”.
For `COc1cccc2c1C(=O)c1c(O)c3c(c(O)c1C2=O)C[C@@](O)(C(=O)CO)C[C@@H]3O[C@H]1C[C@H](N)[C@@H](O)[C@H](C)O1` [Epirubicin], the “Structural cardiotoxin?” value [1] is listed as “Y” and the “Functional cardiotoxin?” value [1] is listed as “Y”.
In the case of `COC(=O)[C@@H]1CC2=CC(=O)CC[C@]2(C)[C@@]23O[C@@H]2C[C@@]2(C)[C@@H](CC[C@@]24CCC(=O)O4)[C@H]13` [Eplerenone], the “Structural cardiotoxin?” value [1] is given as “N” and the “Functional cardiotoxin?” value [1] is given as “Y”.
In the case of `Cc1ccc(C)c(OCCCC(C)(C)C(=O)O)c1` [Gemfibrozil], the “Structural cardiotoxin?” value [1] is listed as “N” and the “Functional cardiotoxin?” value [1] is listed as “N”.
For `CC(C)NCC(O)c1ccc(O)c(O)c1` (stereo not shown) [Isoproterenol HCl], the “Structural cardiotoxin?” value [1] is listed as “Y” and the “Functional cardiotoxin?” value [1] is listed as “Y”.
For `CCn1cc(C(=O)O)c(=O)c2cc(F)c(N3CCNC(C)C3)c(F)c21` (stereo not shown) [Lomefloxacin], the “Structural cardiotoxin?” value [1] is given as “Y” and the “Functional cardiotoxin?” value [1] is given as “Y”.
With `COC(=O)Nc1nc2ccc(C(=O)c3ccccc3)cc2[nH]1` [Mebendazole] the “number of significant differentially expressed genes, 6hr high” value (cardiac microtissues) was 195, the “number of significant differentially expressed genes, 6hr low” value (cardiac microtissues) was 27 and the “number of significant differentially expressed genes, 48hr high” value (cardiac microtissues) was 407. The “number of significant differentially expressed genes, 48hr low” value (cardiac microtissues) was 79, the “number of significant differentially expressed genes, 72hr high” value (cardiac microtissues) was 536 and the “number of significant differentially expressed genes, 72hr low” value (cardiac microtissues) was 192.
In the case of `CN(C)CCN(Cc1cccs1)c1ccccn1` [Methapyrilene], the “Structural cardiotoxin?” value [1] is given as “N”.
In the case of `O=C1C[C@@H](c2ccc(O)cc2)Oc2cc(O)cc(O)c21` [Narigenin, Naringenin], the “Structural cardiotoxin?” value [1] is listed as “N” and the “Functional cardiotoxin?” value [1] is listed as “N”.
For `Cc1ccc(Nc2nccc(N(C)c3ccc4c(C)n(C)nc4c3)n2)cc1S(N)(=O)=O` [Pazopanib], the “Structural cardiotoxin?” value [1] is listed as “N” and the “Functional cardiotoxin?” value [1] is listed as “Y”.
For `CCc1ccc(CCOc2ccc(CC3SC(=O)NC3=O)cc2)nc1` (stereo not shown) [Pioglitazone], the “Structural cardiotoxin?” value [1] is listed as “Y” and the “Functional cardiotoxin?” value [1] is listed as “Y”.
In the case of `Cc1ccc(C(=O)Nc2ccc(CN3CCN(C)CC3)c(C(F)(F)F)c2)cc1C#Cc1cnc2cccnn12` [Ponatinib], the “Structural cardiotoxin?” value [1] is listed as “Y” and the “Functional cardiotoxin?” value [1] is listed as “Y”.
In the case of `O=C(C1CCCCC1)N1CC(=O)N2CCc3ccccc3C2C1` (stereo not shown) [Praziquantel], the “Structural cardiotoxin?” value [1] is given as “N” and the “Functional cardiotoxin?” value [1] is given as “N”.
In the case of `CS(=O)(=O)c1ccc(C2=C(c3ccccc3)C(=O)OC2)cc1` [Rofecoxib], the “Structural cardiotoxin?” value [1] is listed as “Y” and the “Functional cardiotoxin?” value [1] is listed as “Y”.
In the case of `N#CC[C@H](C1CCCC1)n1cc(-c2ncnc3[nH]ccc23)cn1` [Ruxolitinib], the “Structural cardiotoxin?” value [1] is given as “N” and the “Functional cardiotoxin?” value [1] is given as “N”.
In the case of `NC[C@H]1O[C@H](O[C@H]2[C@H](O)[C@@H](O[C@H]3O[C@H](CO)[C@@H](O)[C@H](N)[C@H]3O)[C@H](N)C[C@@H]2N)[C@H](N)C[C@@H]1O` [Tobramycin], the “Structural cardiotoxin?” value [1] is given as “N” and the “Functional cardiotoxin?” value [1] is given as “N”.
In the case of `CCCCNC(=O)NS(=O)(=O)c1ccc(C)cc1` [Tolbutamide], the “Structural cardiotoxin?” value [1] is listed as “N” and the “Functional cardiotoxin?” value [1] is listed as “N”.
